# Tests used:
# [1] = test system: HHV-6 variant B HST strain; experiment: Expression of SITH-1 in HHV-6-infected U373 cells in the presence of ganciclovir (real-time PCR); assay type: cell-based, human herpesvirus 6; conditions: U373 glial cell line infected with HHV-6, one day after infection, relative to ganciclovir (-)
# Method: The human glial cell line (U373) was infected with HHV-6 in the presence of ganciclovir, and the amount of SITH-1 expressed in the infected cell line was measured by the real-time PCR technique.
# The U373 cells were cultured overnight in the presence of ganciclovir at various concentrations (FIG. 14) and infected with an HHV-6 variant B HST strain, and the amount of SITH-1 that was expressed in cells one day after the infection was measured by the real-time PCR technique.
# Since the effective concentration of ganciclovir against HHV-6 variant B is considered to be about 10 μM in terms of IC50, three concentrations were obtained by 3-fold dilutions, with 10 μM in the middle.
# The vertical axis of the graph in FIG. 14 plots the relative amount of expression of SITH-1 mRNA, with the value for ganciclovir (-) being taken as unity. […] When ganciclovir was used in the amounts of […], 10 μM and 30 μM, the amount of expression of SITH-1 mRNA was suppressed by about 20%, 40% and more than 80%, respectively.
# CAML = experiment: Expression of CAML in HHV-6-infected U373 cells in the presence of ganciclovir (indirect fluorescent antibody technique); assay type: cell-based, human; conditions: U373 cell line infected with HHV-6, ganciclovir added after infection
# Method: The human glial cell line (U373) is infected with HHV-6, and then ganciclovir is added. The amount of CAML expressed in the infected cell line in the presence of ganciclovir is measure by the indirect fluorescent antibody technique.
# HHV-6 variant B = conditions: "is considered to be", read-out: effective concentration against HHV-6 variant B in terms of IC50; cited from earlier work
# [2] = test system: HHV-6 or Epstein-Barr virus (EBV); conditions: patients with encephalitis/encephalopathy-like and long-standing fatigue symptoms, presumably due to HHV-6 or EBV infection; cited from earlier work
SMILES,amount of expression of SITH-1 mRNA suppressed ([1]; ganciclovir 3 μM),amount of expression of SITH-1 mRNA suppressed ([1]; ganciclovir 10 μM) [%],amount of expression of SITH-1 mRNA suppressed ([1]; ganciclovir 30 μM),amount of CAML expression (CAML),IC50 (HHV-6 variant B) [µM],patients who had their symptoms improved [2] [%]
Nc1nc(O)c2ncn(COC(CO)CO)c2n1 [ganciclovir],about 20%,~40,more than 80%,suppressed by ganciclovir in a dose-dependent manner,~10,
CC(C)[C@H](N)C(=O)OCC(CO)OCn1cnc2c(=O)nc(N)[nH]c21 (stereo partly drawn) [valganciclovir],,,,,,75

# — US9657324B1, “Method for treating or preventing mood disorders” (VIRUS IKAGAKU KENKYUSHO INC., priority 2008, dated 2017)
